From PMC12339163, “Combining Plant Bioactives With Antibiotics for Enhanced Antibiofilm Activity Against Uropathogenic Staphylococcus spp. and Cytotoxicity Evaluation” (Advances in Pharmacological and Pharmaceutical Sciences, 2025)
Read-outs that look alike come from different tables or passages of the source. Blank lines part the entries; values can stand above or below the compound they belong to.

Experiments:
[1] = test system: S. epidermidis biofilm; experiment: Time-kill kinetic assay on biofilm inhibition; type: cell-based, Staphylococcus epidermidis; settings: at 24 h
Experimental: The biofilm formation inhibitory activity of NPs and ATBs was carried out according to the method previously described. A total of 100 µL of bacterial inoculum (1.5 × 10^6 CFU/mL) was used, and 100 µL of each sample was added to the microplate to achieve final concentrations ranging from 0.25 µg/mL to 128 µg/mL for ATBs and from 8 µg/mL to 1024 µg/mL for NPs. Then, the microplate was incubated at 37°C for 24 h. After incubation, the plates were gently emptied and washed three times with a phosphate buffer solution at pH 7.2. Then, the MTT solution (0.5 mg/mL) prepared in PBS was introduced into each well, and the microplate was further incubated at 37°C for 24 h. Untreated wells containing bacterial suspension and MHB supplemented with 1% glucose were considered positive controls, and wells containing only MHB+1% glucose without bacteria were used as blanks. After incubation, the MTT solution was aspirated, then 150 µL of DMSO was introduced to dissolve the formazan crystal formed by viable bacteria, and the optical density (OD) was measured at 570 nm using a microplate reader (VERSA-max). The percentage of biofilm inhibition was calculated using the formula below, and the minimal biofilm inhibitory concentration (MBIC) was recorded as the lowest concentration of NPs or ATBs that inhibited 100% of biofilm:(1) % biofilm inhibition=ODcontrol−ODblank−ODtest−ODblank/ODcontrol−ODblank×100.
The five best synergistic antibiofilm combinations were selected, and their ability to inhibit biofilm formation and eradication as a function of time was evaluated at 4-h intervals for 24 h by the microtiter plate method, as previously described. The synergistic antibiofilm combinations selected were with FICI < 0.4, named C1 to C5. C1: cefixime (5.33 µg/mL) + thymol (32 µg/mL); C2: cefazolin (1.16 µg/mL) + thymol (21.33 µg/mL); C3: amikacin (0.18 µg/mL) + curcumin (37.33 µg/mL); C4: kanamycin (0.25 µg/mL) + curcumin (14 µg/mL); and C5: amoxicillin (1.16 µg/mL) + curcumin (21.33 µg/mL). The kinetics of biofilm inhibition and eradication were performed as described above for the biofilm inhibition and eradication assay using the indicated combinations, followed by the reading of the optical densities (570 nm) at 4-h intervals over 24 h (0, 4, 8, 12, 16, and 24 h). In both cases, experiments were carried out three times in triplicate.

[2] = test system: planktonic cells of Staphylococcus spp.; experiment: Checkerboard combination assay, planktonic cells, synergistic combinations (Table 3); type: cell-based; settings: mean
Experimental: The checkerboard assay, as previously described, was used for the determination of the fractional inhibitory concentration index (FICI). Briefly, 50 µL of MHB was distributed into each well of a 96-well microplate. ATBs were serially diluted along the abscissa, and NPs were serially diluted along the ordinate. Then, 100 µL of bacterial inoculum (1.5 × 10^6 CFU/mL) was added to each well and incubated at 37°C for 24 h. The final concentration ranged from 0.125 to 128 µg/mL for ATBs and 4–512 µg/mL for NPs. After incubation, a volume of 40 µL of INT solution (0.2 mg/mL) was added to each well, and the microplate was incubated at 37°C for 30 min. The wells containing bacterial inoculum and MHB were used as a positive control, while wells containing only MHB + 1% glucose were used as a negative control and used as a blank. Viable bacteria cells change the yellow dye of INT to a pink color. The MICs were considered to be the lowest NP concentrations that prevented the color change medium. Subsequently, the FICI was calculated according to the formula FICI = (MIC of the ATBs in combination/MIC of the ATBs alone) + (MIC of a natural substance in combination/MIC of the natural substance alone). FICI values were interpreted as follows: synergy when FICI ≤ 0.5; additive when 0.5 < FICI ≤ 1; indifference when 1 < FICI ≤ 4; and antagonism when FICI > 4.

[3] = C1 and its components (cefixime 5.33 µg/mL, thymol 32 µg/mL)
[4] = C2 and its components (cefazolin 1.16 µg/mL, thymol 21.33 µg/mL)

SMILES: C=CC1=C(C(=O)O)N2C(=O)[C@@H](NC(=O)/C(=N\OCC(=O)O)c3csc(N)n3)[C@H]2SC1 [Cefixime, cefixime]
OD (570 nm), biofilm inhibition [1, 3]: 0.84

MIC ([2]; 24 h, read-out: MIC alone, NPs): 384 µg/mL
SMILES: COc1cc(/C=C/C(=O)CC(=O)/C=C/c2ccc(O)c(OC)c2)ccc1O [Curcumin, curcumin]

MIC ([2]; read-out: MIC alone, ATB): 1.16 µg/mL
SMILES: NCC[C@H](O)C(=O)N[C@@H]1C[C@H](N)[C@@H](O[C@H]2O[C@H](CN)[C@@H](O)[C@H](O)[C@H]2O)[C@H](O)[C@H]1O[C@H]1O[C@H](CO)[C@@H](O)[C@H](N)[C@H]1O [Amikacin, amikacin]

MIC ([2]; 24 h, read-out: MIC alone, NPs): 427 µg/mL
SMILES: Cc1ccc(C(C)C)c(O)c1 [Thymol, thymol]
OD (570 nm), biofilm inhibition [1, 3]: 0.67 | OD (570 nm), biofilm inhibition [1, 4]: 0.96

MIC ([2]; read-out: MIC alone, ATB): 7 µg/mL
SMILES: C[C@H]1c2cccc(O)c2C(=O)C2=C(O)[C@]3(O)C(=O)C(C(N)=O)=C(O)[C@@H](N(C)C)[C@@H]3[C@@H](O)[C@@H]21 [Doxycycline, doxycycline]

MIC ([2]; 24 h, read-out: MIC alone, NPs): 512 µg/mL
SMILES: O=C(O)c1cc(O)c(O)c(O)c1 [Gallic acid, 3,4,5-trihydroxybenzoic acid]

SMILES: Cc1nnc(SCC2=C(C(=O)O)N3C(=O)[C@@H](NC(=O)Cn4cnnn4)[C@H]3SC2)s1 [Cefazolin, cefazolin]
OD (570 nm), biofilm inhibition [1, 4]: 1.27
